Results taken from patent publication US20110014669A1, “Production of 1,4 Butanediol in a Microorganism” (Microbia, Inc., priority 2009, published 2011).
Like-named read-outs stand apart in the source and are kept apart here.

Columns and labels:
[1] = system: Pseudomonas putida (ATCC 700801)
Description: (§1) For each experiment, 50 mL of media was filter-sterilized before adding to pre-sterilized 250 mL triple baffled shake flasks. […] Each strain was grown in four different shake flasks.
(§2) Inocula were freshly grown on agar plates, cotton swabbed into a sterile Falcon® tube containing the same medium used in the shake flask and mixed well. The cell suspension was then inoculated into the prepared shake flasks to initiate the growth evaluation. The growth for each strain was monitored by measuring the OD (at 660 nm) and pH over the time course. If the medium contained glucose, such as Difco® Yeast Malt medium (YM), glucose concentration was monitored by using a YSI 2700 Select Biochemistry Analyzer.
(§3) Since different media and growth conditions were used, results were expressed as % of growth where the control, no BDO flask, represented 100% growth.

[2] = system: S. cerevisiae strains (CEN.PK and Fermentis); settings: 135 g/L of BDO
Description: as §1, §2, §3

[3] = system: Zymomonas mobilis (ATCC 31821); settings: 90 g/L and 135 g/L of BDO
Description: as §1, §2, §3

[4] = system: Yarrowia lipolytica (ATCC 20228)
[5] = system: Zygosaccharomyces bailii (ATCC 60594)
[6] = system: Corynebacterium glutamicum (ATCC 13032); settings: FIG. 12A
Description: as §1, §2, §3

[7] = system: 4-hydroxybutanal; experiment: Enzyme assay, oxidoreductase (step A6), cell lysates; type: biochemical; design: key: +: measureable activity detected in the assay; −: no measurable activity detected in the assay; settings: BDO biosynthetic pathway step A6
Description: Enzyme expression and crude lysate preparation. The enzymatic activity of each candidate enzyme is evaluated, first in E. coli and subsequently in C. glutamicum. It will be apparent to one of skill in the art that the expression and lysate preparations may need to be modified depending on the host cell and recombinant gene of interest.
E. coli: E. coli strains transformed with expression clones, for example, pUC18 or MB4124 based clones having a medium strong constitutive promoter regulating the recombinant gene of interest, are grown aerobically in LB medium (Difco) containing the appropriate antibiotic(s). At an OD600 of 0.5, IPTG is added to a final concentration of 0.25 mM. The cultures are grown to a final OD600 of 1.5 at which time the cells are collected and harvested by centrifugation. Cell pellets are resuspended in BugBuster (Novagen) reagent containing benzonase and lysozyme. Alternatively, E. coli strains transformed with expression clones, are grown overnight aerobically at 37° C. in BHI containing the appropriate antibiotic(s). 300 μL of fresh overnight culture is used to inoculate 2.7 mL BHI containing 0.25 mM IPTG and the appropriate antibiotic. The cultures are grown aerobically for 4-5 hours at 37° C. at which time the cells are collected and harvested by centrifugation. Cell pellets are frozen at −80° C. for at least 15 minutes, then thawed and resuspended in BugBuster (Novagen) reagent. Lysis and lysate collection are performed according to the manufacturer's instructions and, for example, may involve use of a sonicator and/or French press. Cleared lysates are stored on ice until enzyme assays are performed. […]
Protein Assays. Protein concentrations in lysates are determined according to the methods of Bradford et al. (Anal. Biochem. 72:248-254 [1976]) or by the method of Smith et al. (Anal. Biochem. 150(1):76-85 [1985]) and lysates are assayed according to the methods below. […]

[8] = 90 g/L and 135 g/L of BDO, loss of cell viability

OCCCCO [BDO, 1,4-butanediol]
cell density in the presence of BDO ([1]; 20 g/L of BDO, relative to no-BDO control): approximately twice of the control | growth in the presence of BDO ([1]; 90 g/L and 135 g/L BDO, FIG. 12B): grew poorly | tolerance to BDO [2]: greater tolerance than E. coli | growth in the presence of BDO [3]: grew better than the rest of strains | growth in the presence of BDO ([4]; 20 g/L of BDO): able to grow | growth in the presence of BDO [4, 8]: completely inhibited growth | growth in the presence of BDO ([5]; 20 g/L of BDO): able to grow | growth in the presence of BDO [5, 8]: completely inhibited growth | growth in the presence of BDO ([6]; 90 g/L and 135 g/L of BDO): grew better than the rest of strains | growth in the presence of BDO ([6]; 135 g/L BDO, compared with Z. mobilis): grew better than Z. mobilis

B1: AdhBZm: Enzyme candidate for BDO biosynthetic pathway step A6, SEQ ID NO. 50 (protein, listed as Zymomonas mobilis)
chain: MASSTFYIPFVNEMGEGSLEKAIKDLNGSGFKNALIVSDAFMNKSGVVKQVADLLKAQGINSAVYDGVMPNPTVTAVLEGLKILKDNNSDFVISLGGGSPHDCAKAIALVATNGGEVKDYEGIDKSKKPALPLMSINTTAGTASEMTRFCIITDEVRHVKMAIVDRHVTPMVSVNDPLLMVGMPKGLTAATGMDALTHAFEAYSSTAATPITDACALKAASMIAKNLKTACDNGKDMPAREAMAYAQFLAGMAFNNASLGYVHAMAHQLGGYYNLPHGVCNAVLLPHVLAYNASVVAGRLKDVGVAMGLDIANLGDKEGAEATIQAVRDLAASIGIPANLTELGAKKEDVPLLADHALKDACALTNPRQGDQKEVEELFLSAF
Enzyme Assay [7]: +
